Among the data in ChEMBL document CHEMBL3352591, “Total synthesis of clavatadine A” (J Nat Prod, 2015) are IC50 values, retold here.

The test has as its target Coagulation factor XI (Homo sapiens, UniProt P03951). As to the kind of experiment: Inhibition of human coagulation factor 11a pre-incubated for 15 mins before substrate S2366 addition and measured after 2 hrs post substrate addition.

Sequence of Coagulation factor XI (P03951 19-387 limits assumed): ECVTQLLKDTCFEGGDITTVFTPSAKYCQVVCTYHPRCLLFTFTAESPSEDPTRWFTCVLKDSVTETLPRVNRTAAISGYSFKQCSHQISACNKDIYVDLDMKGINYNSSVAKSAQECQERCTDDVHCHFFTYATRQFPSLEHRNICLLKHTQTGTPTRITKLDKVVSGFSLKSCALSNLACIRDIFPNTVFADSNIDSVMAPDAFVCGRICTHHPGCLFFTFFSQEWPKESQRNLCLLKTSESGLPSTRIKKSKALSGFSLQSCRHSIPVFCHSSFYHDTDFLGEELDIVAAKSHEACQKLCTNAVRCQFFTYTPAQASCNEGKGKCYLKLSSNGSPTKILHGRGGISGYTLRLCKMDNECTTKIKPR
Sequence of Coagulation factor XI (P03951 388-625 limits assumed): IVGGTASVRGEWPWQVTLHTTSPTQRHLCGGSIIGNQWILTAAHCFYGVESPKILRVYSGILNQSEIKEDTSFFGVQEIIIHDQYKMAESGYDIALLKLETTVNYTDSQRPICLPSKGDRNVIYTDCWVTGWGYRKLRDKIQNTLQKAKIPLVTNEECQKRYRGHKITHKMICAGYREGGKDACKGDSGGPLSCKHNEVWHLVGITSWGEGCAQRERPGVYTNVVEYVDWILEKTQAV

In general, IC50 refers to the point on the concentration scale where inhibition reaches its midpoint. A lower IC50 goes with greater potency in that assay. `N=C(N)NCCCCNC(=O)Oc1c(Br)cc(O)c(CC(=O)O)c1Br` registered a 50% inhibitory concentration (IC50) of 6.3 µM.
